In ChEMBL document CHEMBL4689842, “EUbOPEN Chemogenomics Library wave 1” (2021):

Key:
Assay type in all cases: toxicity, cell-based
[1] = test system: Fibroblast; test: Incucyte cell viability with human fibroblast; details: 10 µM, compound concentration 10 uM
[2] = test system: HEK-293T; test: Incucyte cell viability with HEK293T; details: human, 10 µM, compound concentration 10 uM
[3] = test system: U2OS; test: Incucyte cell viability with U2OS; details: human, 10 µM, compound concentration 10 uM
[4] = 0 h, replicate number 1, timepoint 0 hours
[5] = 18 h, replicate number 1, timepoint 18 hours
[6] = 24 h, replicate number 1, timepoint 24 hours
[7] = 0 h, replicate number 2, timepoint 0 hours
[8] = 6 h, replicate number 1, timepoint 6 hours
[9] = 12 h, replicate number 1, timepoint 12 hours
[10] = 6 h, replicate number 2, timepoint 6 hours
[11] = 12 h, replicate number 2, timepoint 12 hours
[12] = 18 h, replicate number 2, timepoint 18 hours
[13] = 24 h, replicate number 2, timepoint 24 hours
Further: filed as whole numbers so only -1 and 0 and 1 occur.

SMILES | Growth Rate [1, 4] | Growth Rate [1, 5] | Growth Rate [1, 6] | Growth Rate [2, 4] | Growth Rate [2, 8] | Growth Rate [2, 9] | Growth Rate [2, 5] | Growth Rate [2, 6] | Growth Rate [3, 4] | Growth Rate [3, 9] | Growth Rate [3, 5] | Growth Rate [3, 6] | Growth Rate [1, 10] | Growth Rate [1, 11] | Growth Rate [1, 12] | Growth Rate [2, 11] | Growth Rate [3, 8] | Growth Rate [3, 11] | Growth Rate [3, 12] | Growth Rate [1, 9] | also measured
COc1ccc2c(c1)O[C@@H](c1ccc(OC)c(OC)c1)C[C@H]2NC(=O)C1(c2ccc3c(c2)OC(F)(F)O3)CC1 [A-1596586] | 0 | 1 | 1 | 1 | 0 | 0 | 0 | 0 | 0 | 1 | 1 | 1 | – | – | – | – | – | – | – | – | Growth Rate [2, 7]: 0
O=C(N1CCS(=O)(=O)CC1)N1C[C@H](c2ccc(OC(F)(F)F)cc2)C[C@H](c2nc(C3CC3)no2)C1 [BAY-386] | 0 | – | 1 | 0 | 1 | 0 | 0 | 0 | – | 0 | 0 | 0 | 0 | 0 | 0 | 1 | 0 | 1 | 1 | – | Growth Rate [1, 13]: 0; Growth Rate [3, 7]: 0; Growth Rate [3, 10]: 1; Growth Rate [3, 13]: 1
NS(=O)(=O)c1cc(NC(=O)Cc2ccccc2)ccc1Oc1cccc(Cl)c1 [BAY-1797] | 0 | – | 1 | 0 | 0 | 0 | 0 | 0 | – | 1 | 0 | 0 | – | 1 | 1 | 1 | 0 | 0 | 1 | – | Growth Rate [2, 10]: 1; Growth Rate [3, 13]: 1
Cn1cc(Cl)c2c(Oc3c(F)cc(Nc4cc(Cl)nc(N)n4)cc3F)ccnc21 [BAY-4900] | 0 | – | 1 | 0 | – | – | 1 | 1 | 1 | 1 | 0 | 1 | 0 | 1 | 1 | 0 | 1 | – | 1 | – | Growth Rate [2, 10]: 0; Growth Rate [2, 12]: 0; Growth Rate [2, 13]: 0; Growth Rate [3, 7]: 0
O=C(O)[C@H]1[C@H](Cn2nnc3ccccc3c2=O)CC[C@@H]1C(=O)c1ccc(OCCC2CCOCC2)cc1 [BAY-7598] | 0 | 1 | 1 | 0 | – | 1 | 1 | 1 | – | 1 | 0 | 1 | – | – | – | – | 1 | 0 | 1 | 1 | Growth Rate [1, 8]: 1; Growth Rate [2, 7]: 1; Growth Rate [2, 10]: 1; Growth Rate [3, 7]: 0
C[C@H]1C[C@H]2[C@@H]3CCC4=CC(=O)C=C[C@]4(C)[C@@]3(Cl)[C@@H](O)C[C@]2(C)[C@@]1(O)C(=O)CO [BECLOMETHASONE] | 0 | – | – | 0 | 1 | 1 | 1 | 1 | 0 | 1 | 1 | 1 | 0 | – | – | 0 | – | – | – | – | Growth Rate [2, 10]: 0; Growth Rate [2, 12]: 0; Growth Rate [2, 13]: 0; Growth Rate [3, 10]: 0
CC1=C2C[C@H]3[C@@H](CC=C4C[C@@H](O)CC[C@@]43C)[C@@H]2CC[C@]12O[C@@H]1C[C@H](C)CN[C@H]1[C@H]2C [CYCLOPAMINE] | 0 | 0 | 0 | 0 | 0 | 0 | 0 | 0 | 0 | – | – | 1 | – | – | 1 | – | – | 1 | 1 | 0 | Growth Rate [1, 7]: 1; Growth Rate [1, 8]: 1; Growth Rate [3, 10]: 0
Cc1c(F)cccc1NC(=O)Nc1ccc(Cl)c(S(=O)(=O)[C@H]2CCCNC2)c1O [DANIRIXIN] | 0 | 1 | 1 | 0 | 0 | 0 | 0 | 0 | 0 | 0 | 0 | 0 | – | – | – | – | 0 | 1 | 1 | 1 | Growth Rate [3, 7]: 1; Growth Rate [3, 10]: 1; Growth Rate [3, 13]: 1
CCN(CCO)CCCOc1ccc2c(Nc3cc(CC(=O)Nc4cccc(F)c4)[nH]n3)ncnc2c1 [DEFOSBARASERTIB] | – | 0 | 0 | – | – | – | – | 1 | 1 | 0 | 0 | 0 | – | – | – | – | 0 | – | – | 0 | Growth Rate [1, 7]: 1; Growth Rate [1, 8]: 0; Growth Rate [2, 7]: 1; Growth Rate [2, 10]: 1
COc1cccc(-c2c(C)n(Cc3c(F)cccc3C(F)(F)F)c(=O)n(C[C@H](NCCCC(=O)[O-])c3ccccc3)c2=O)c1F.[Na+] [ELAGOLIX SODIUM] | 0 | – | – | 0 | 1 | 1 | 1 | 1 | – | 0 | 0 | 0 | 0 | 0 | 0 | 0 | 0 | – | 1 | – | Growth Rate [1, 7]: 1; Growth Rate [1, 13]: 0; Growth Rate [3, 7]: 1
C[C@H](NC(=O)Nc1cc2[nH]ncc2c(CO)n1)c1ccccn1 [ERKi-NC] | – | 1 | 1 | 0 | – | – | 1 | 1 | 0 | 0 | 0 | 0 | – | – | 0 | – | 0 | 1 | 1 | 0 | Growth Rate [1, 7]: 1; Growth Rate [1, 8]: 0; Growth Rate [2, 7]: 1; Growth Rate [3, 10]: 1; Growth Rate [3, 13]: 1
C[C@@H](NC(=O)Nc1cc2[nH]ncc2c(CO)n1)c1ccccc1 [ERKi] | 0 | 1 | 0 | 0 | – | – | – | – | 0 | 0 | 0 | 0 | – | – | – | – | 0 | – | – | 1 | Growth Rate [1, 13]: 1; Growth Rate [2, 13]: 1
CCOC(=O)c1ncn2c1CN(C)C(=O)c1cc(F)ccc1-2 [FLUMAZENIL] | 0 | 1 | 1 | 0 | 1 | 1 | 1 | 1 | 1 | 0 | 0 | 0 | 0 | 0 | 0 | 0 | 0 | – | 1 | – | Growth Rate [2, 10]: 0; Growth Rate [2, 12]: 0; Growth Rate [2, 13]: 0; Growth Rate [3, 13]: 1
CC(C)(N)C(=O)N[C@H](COCc1ccccc1)C(=O)N1CCC2(CC1)CN(S(C)(=O)=O)c1ccccc12.CS(=O)(=O)O [IBUTAMOREN MESYLATE] | 1 | 0 | 0 | 0 | 0 | 1 | 0 | 0 | – | – | 1 | 1 | 1 | 1 | – | – | – | 1 | – | 0 | Growth Rate [1, 8]: 0; Growth Rate [2, 12]: 1; Growth Rate [2, 13]: 1; Growth Rate [3, 10]: 1
CN(C)CCCN1c2ccccc2CCc2ccccc21.Cl [IMIPRAMINE HYDROCHLORIDE] | 0 | 1 | 0 | – | 0 | 0 | 0 | 0 | – | 1 | 1 | 1 | – | – | 0 | – | – | – | – | 0 | Growth Rate [1, 8]: 0; Growth Rate [2, 7]: 1; Growth Rate [3, 7]: 0
